These compounds were tested against T1, kinase domain of human CSF1-R (Homo sapiens, UniProt P07333) (assay: Alphascreen protein tyrosine kinase assay, CSF-1R). Settings: not given.
T1 construct: from codon I553 to Q961; made in house; host or cells: Sf9 insect cells (baculovirus)
T1 sequence (P07333 553-961): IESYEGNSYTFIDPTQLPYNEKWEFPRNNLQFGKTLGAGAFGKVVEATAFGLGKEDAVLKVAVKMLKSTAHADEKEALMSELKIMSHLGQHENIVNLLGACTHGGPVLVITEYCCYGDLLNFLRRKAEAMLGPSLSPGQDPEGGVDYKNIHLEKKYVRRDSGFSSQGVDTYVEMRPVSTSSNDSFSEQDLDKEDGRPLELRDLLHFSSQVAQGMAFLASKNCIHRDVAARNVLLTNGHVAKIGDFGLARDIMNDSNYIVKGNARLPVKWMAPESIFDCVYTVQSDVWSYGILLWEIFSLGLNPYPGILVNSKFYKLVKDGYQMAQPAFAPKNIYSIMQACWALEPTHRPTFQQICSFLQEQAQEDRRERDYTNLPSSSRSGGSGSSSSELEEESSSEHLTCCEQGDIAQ
Format: biochemical
Method: (§1) For screening purposes, compounds were diluted in 96 well plates at a concentration of 20 μM. Plates were warmed at 37° C. for 30 minutes before assay.
The kinase domain of human CSF1-R from codon I553 to Q961 was cloned into the pDEST-20 expression vector (Invitrogen). The CSF1-R plasmid was then transformed into competent DH10Bac cells (Gibco), and the recombinant baculovirus produced prepared for transfection into Sf9 insect cells.
(§2) Baculovirus preparations from each of construct were infected into five liters of SF9 cells (Invitrogen) grown in SF-900 medium (Invitrogen) to a cell density of approximately 1−2×10^6 cells/ml. […] Cells were harvested and lysed. Tyrosine kinase domains were purified by affinity chromatography on a glutathione-agarose column (Scientifix Pty. Ltd. catalog #: GSH-200).
(§3) Kinase assays were performed in 384 well Optiplates (Packard) using an Alphascreen Protein Tyrosine Kinase kit. […] Alphascreen phosphotyrosine acceptor beads followed by streptavidin donor beads were added under subdued light. The Alphascreen plates were read on a Packard Fusion Alpha. Inhibitors were added to the assays thirty minutes prior to the addition of ATP. Inhibitors were added in aqueous DMSO, with DMSO concentrations never exceeding 1%.

Row | IC50 | Compound
1 | < 100 nM | Cc1ccnc(C(=O)Nc2cccc([C@H](C)Nc3cncc(Cl)n3)c2)c1 [Compound 82]
2 | < 100 nM | Cc1cccc(C(=O)Nc2cccc([C@H](C)Nc3cncc(N4CCC(O)CC4)n3)c2)c1 [Compound 95]

More lines, now with the values behind:

Row | Compound | IC50
3 | Cc1cccc(C(=O)Nc2cccc([C@H](C)Nc3cncc(-c4ccc(N5CCOCC5)cc4)n3)c2)c1 [Compound 81] | < 100 nM
4 | Cc1cccc(C(=O)Nc2cccc([C@H](C)Nc3cncc(-c4ccc(O)nc4)n3)c2)c1 [Compound 90] | < 100 nM
5 | C[C@H](Nc1cncc(Cl)n1)c1cccc(NC(=O)c2ccc(CN3CCN(C)CC3)cc2)c1 [Compound 91] | < 100 nM

What follows are compounds tested against T2, PDGFR β tyrosine kinase (Homo sapiens, UniProt P09619) (assay: Alphascreen protein tyrosine kinase assay, PDGFRβ). Settings: not given.
T2 construct: purchased Upstate Cell Signalling Solutions, CA, USA 14-463
Format: biochemical

T2 sequence (P09619 33-1106): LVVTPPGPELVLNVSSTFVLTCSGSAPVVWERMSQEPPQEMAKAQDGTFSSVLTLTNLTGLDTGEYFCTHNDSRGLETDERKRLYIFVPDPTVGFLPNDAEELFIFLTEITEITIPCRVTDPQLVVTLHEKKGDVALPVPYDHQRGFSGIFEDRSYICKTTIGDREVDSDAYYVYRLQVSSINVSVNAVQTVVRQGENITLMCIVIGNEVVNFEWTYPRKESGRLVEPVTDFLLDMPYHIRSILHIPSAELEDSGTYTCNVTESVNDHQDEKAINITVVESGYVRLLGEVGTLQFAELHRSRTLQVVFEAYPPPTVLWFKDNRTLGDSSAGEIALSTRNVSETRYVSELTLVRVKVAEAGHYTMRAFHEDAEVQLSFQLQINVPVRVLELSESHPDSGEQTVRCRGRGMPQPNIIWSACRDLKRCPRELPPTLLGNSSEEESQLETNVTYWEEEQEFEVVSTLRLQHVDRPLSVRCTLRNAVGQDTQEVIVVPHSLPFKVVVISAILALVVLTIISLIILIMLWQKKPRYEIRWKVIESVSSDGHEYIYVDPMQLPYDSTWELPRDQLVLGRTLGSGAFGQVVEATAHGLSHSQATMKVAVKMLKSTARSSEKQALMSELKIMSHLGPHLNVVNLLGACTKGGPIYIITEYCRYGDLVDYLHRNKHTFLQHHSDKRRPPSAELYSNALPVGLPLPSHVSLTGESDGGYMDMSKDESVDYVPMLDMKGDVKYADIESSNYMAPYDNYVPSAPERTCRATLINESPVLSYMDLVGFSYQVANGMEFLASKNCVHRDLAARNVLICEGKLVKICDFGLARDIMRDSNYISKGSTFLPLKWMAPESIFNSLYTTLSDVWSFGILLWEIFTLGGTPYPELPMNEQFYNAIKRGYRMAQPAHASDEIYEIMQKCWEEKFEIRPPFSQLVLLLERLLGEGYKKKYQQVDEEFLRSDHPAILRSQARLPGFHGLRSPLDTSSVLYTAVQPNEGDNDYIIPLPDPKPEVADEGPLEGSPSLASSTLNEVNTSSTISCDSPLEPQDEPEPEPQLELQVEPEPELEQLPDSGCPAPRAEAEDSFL

Row | IC50 | Compound
6 | < 1000 nM | Cc1cncc(C(=O)Nc2cccc([C@H](C)Nc3cncc(Cl)n3)c2)c1 [Compound 42, N-(3-{(1S)-1-[(6-chloropyrazin-2-yl)amino]ethyl}phenyl)-5-methylnicotinamide]
7 | < 1000 nM | Cc1ccnc(C(=O)Nc2cccc([C@H](C)Nc3cncc(Cl)n3)c2)c1 [Compound 82]
8 | < 1000 nM | Cc1cc(C(=O)Nc2cccc([C@H](C)Nc3cncc(Cl)n3)c2)ccn1 [Compound 83]
9 | < 1000 nM | Cc1cccc(C(=O)Nc2cccc([C@H](C)Nc3cncc(N4CCC(O)CC4)n3)c2)c1 [Compound 95]

Second part, the compound before the results:

Row | Compound | IC50
10 | COc1cc(-c2cncc(NC(C)c3cccc(NC(=O)c4cccnc4)c3)n2)ccc1O (centres unmarked) [Compound 1] | < 1000 nM
11 | Cc1cccc(C(=O)Nc2cccc([C@H](C)Nc3cncc(-c4ccc(N5CCOCC5)cc4)n3)c2)c1 [Compound 81] | < 1000 nM
12 | Cc1cccc(C(=O)Nc2cccc([C@H](C)Nc3cncc(-c4ccc(O)nc4)n3)c2)c1 [Compound 90] | < 1000 nM
13 | C[C@H](Nc1cncc(Cl)n1)c1cccc(NC(=O)c2ccc(CN3CCN(C)CC3)cc2)c1 [Compound 91] | < 1000 nM
14 | Cc1ccc(C(=O)Nc2cccc([C@H](C)Nc3cncc(Cl)n3)c2)cc1 [Compound 93] | < 1000 nM

Each compound was assayed against T3, kinase domain of human c-kit (Homo sapiens, UniProt P10721) (assay: Alphascreen protein tyrosine kinase assay, c-KIT). Settings: not given.
T3 construct: from codon M552 to end; made in house; host or cells: Sf9 insect cells (baculovirus)
Format: biochemical
Method: as §1
The kinase domain of human c-kit from codon M552 to end was cloned into the pDEST-20 expression vector (Invitrogen). The c-kit plasmid was then transformed into competent DH10Bac cells (Gibco), and the recombinant baculovirus produced prepared for transfection into Sf9 insect cells.
as §2, §3

T3 sequence (P10721 552-976 limits assumed): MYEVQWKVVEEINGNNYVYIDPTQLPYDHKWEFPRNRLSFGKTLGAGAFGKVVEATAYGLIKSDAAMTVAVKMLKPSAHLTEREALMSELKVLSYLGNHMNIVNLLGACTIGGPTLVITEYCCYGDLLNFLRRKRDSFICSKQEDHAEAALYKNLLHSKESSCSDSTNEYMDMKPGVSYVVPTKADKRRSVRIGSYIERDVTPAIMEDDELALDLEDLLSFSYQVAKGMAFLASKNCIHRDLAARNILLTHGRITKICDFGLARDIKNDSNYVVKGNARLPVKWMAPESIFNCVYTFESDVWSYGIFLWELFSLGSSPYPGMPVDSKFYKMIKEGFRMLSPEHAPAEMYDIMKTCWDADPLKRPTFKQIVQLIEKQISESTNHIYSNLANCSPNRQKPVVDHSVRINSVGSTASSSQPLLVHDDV

Row | IC50 | Compound
15 | < 100 nM | Cc1cncc(C(=O)Nc2cccc([C@H](C)Nc3cncc(Cl)n3)c2)c1 [Compound 42, N-(3-{(1S)-1-[(6-chloropyrazin-2-yl)amino]ethyl}phenyl)-5-methylnicotinamide]
16 | < 1000 nM | Cc1ccnc(C(=O)Nc2cccc([C@H](C)Nc3cncc(Cl)n3)c2)c1 [Compound 82]
17 | < 1000 nM | Cc1cc(C(=O)Nc2cccc([C@H](C)Nc3cncc(Cl)n3)c2)ccn1 [Compound 83]
18 | < 1000 nM | Cc1cccc(C(=O)Nc2cccc([C@H](C)Nc3cncc(N4CCC(O)CC4)n3)c2)c1 [Compound 95]

Further lines, the compound ahead of its results:

Row | Compound | IC50
19 | COc1cc(-c2cncc(NC(C)c3cccc(NC(=O)c4cccnc4)c3)n2)ccc1O (centres unmarked) [Compound 1] | < 100 nM
20 | Cc1cccc(C(=O)Nc2cccc([C@H](C)Nc3cncc(-c4ccc(N5CCOCC5)cc4)n3)c2)c1 [Compound 81] | < 100 nM
21 | Cc1cccc(C(=O)Nc2cccc([C@H](C)Nc3cncc(-c4ccc(O)nc4)n3)c2)c1 [Compound 90] | < 1000 nM
22 | C[C@H](Nc1cncc(Cl)n1)c1cccc(NC(=O)c2ccc(CN3CCN(C)CC3)cc2)c1 [Compound 91] | < 1000 nM
23 | Cc1ccc(C(=O)Nc2cccc([C@H](C)Nc3cncc(Cl)n3)c2)cc1 [Compound 93] | < 1000 nM

What follows are compounds tested against T4, FLT-3 tyrosine kinase (Homo sapiens, UniProt P36888) (assay: Alphascreen protein tyrosine kinase assay, FLT-3). Settings: read-out: Flt3.
T4 construct: purchased Upstate Cell Signalling Solutions, CA, USA 14-500
T4 sequence (P36888 27-993): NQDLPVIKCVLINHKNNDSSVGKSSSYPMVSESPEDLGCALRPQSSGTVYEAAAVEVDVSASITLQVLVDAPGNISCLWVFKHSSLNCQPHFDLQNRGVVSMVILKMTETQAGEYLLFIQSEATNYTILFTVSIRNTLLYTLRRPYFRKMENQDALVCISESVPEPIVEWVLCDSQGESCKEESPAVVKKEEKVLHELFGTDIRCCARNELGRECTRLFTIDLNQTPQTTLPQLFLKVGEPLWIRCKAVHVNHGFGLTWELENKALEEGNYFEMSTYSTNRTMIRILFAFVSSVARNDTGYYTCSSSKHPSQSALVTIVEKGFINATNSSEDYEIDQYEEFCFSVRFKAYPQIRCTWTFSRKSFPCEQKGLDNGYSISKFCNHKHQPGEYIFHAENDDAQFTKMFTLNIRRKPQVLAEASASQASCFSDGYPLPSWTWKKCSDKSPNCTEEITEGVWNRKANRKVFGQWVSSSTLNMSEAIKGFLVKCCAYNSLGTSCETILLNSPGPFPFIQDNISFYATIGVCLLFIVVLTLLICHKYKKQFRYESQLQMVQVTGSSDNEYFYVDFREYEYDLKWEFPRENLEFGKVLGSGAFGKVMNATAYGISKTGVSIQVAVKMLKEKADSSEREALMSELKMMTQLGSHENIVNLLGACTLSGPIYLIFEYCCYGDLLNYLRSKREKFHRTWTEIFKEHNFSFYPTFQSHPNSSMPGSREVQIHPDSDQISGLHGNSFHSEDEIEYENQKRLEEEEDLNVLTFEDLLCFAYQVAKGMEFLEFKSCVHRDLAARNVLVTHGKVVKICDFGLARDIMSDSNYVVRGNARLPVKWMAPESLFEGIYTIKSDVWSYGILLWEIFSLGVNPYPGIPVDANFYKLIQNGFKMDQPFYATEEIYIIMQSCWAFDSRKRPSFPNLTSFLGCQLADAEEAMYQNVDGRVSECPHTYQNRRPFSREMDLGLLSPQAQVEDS
Format: biochemical

Row | IC50 | Compound
24 | > 10 µM | Cc1cncc(C(=O)Nc2cccc([C@H](C)Nc3cncc(Cl)n3)c2)c1 [Compound 42, N-(3-{(1S)-1-[(6-chloropyrazin-2-yl)amino]ethyl}phenyl)-5-methylnicotinamide]
25 | > 10 µM | Cc1ccnc(C(=O)Nc2cccc([C@H](C)Nc3cncc(Cl)n3)c2)c1 [Compound 82]
26 | < 1 µM | Cc1cc(C(=O)Nc2cccc([C@H](C)Nc3cncc(Cl)n3)c2)ccn1 [Compound 83]
27 | > 10 µM | Cc1cccc(C(=O)Nc2cccc([C@H](C)Nc3cncc(N4CCC(O)CC4)n3)c2)c1 [Compound 95]

The remaining lines, values behind:

Row | Compound | IC50
28 | COc1cc(-c2cncc(NC(C)c3cccc(NC(=O)c4cccnc4)c3)n2)ccc1O (centres unmarked) [Compound 1] | > 10 µM
29 | Cc1cccc(C(=O)Nc2cccc([C@H](C)Nc3cncc(-c4ccc(N5CCOCC5)cc4)n3)c2)c1 [Compound 81] | > 10 µM
30 | Cc1cccc(C(=O)Nc2cccc([C@H](C)Nc3cncc(-c4ccc(O)nc4)n3)c2)c1 [Compound 90] | < 10 µM
31 | C[C@H](Nc1cncc(Cl)n1)c1cccc(NC(=O)c2ccc(CN3CCN(C)CC3)cc2)c1 [Compound 91] | > 10 µM
32 | Cc1ccc(C(=O)Nc2cccc([C@H](C)Nc3cncc(Cl)n3)c2)cc1 [Compound 93] | > 10 µM
